Like-named read-outs stand apart in the source and are kept apart here.
Assays:
[1] = system: HepG2 liver cells; assay: HepG2 toxicity assay; assay type: cell-based; details: Homo sapiens, HepG2, read-out: HepG2 IC50
[2] = system: P. falciparum 3D7; assay: Asexual stage in vitro antimalarial assay, [3H]-hypoxanthine incorporation; assay type: cell-based; details: Plasmodium falciparum, 3D7, read-out: Pf 3D7 IC50
[3] = system: P. falciparum NF54 late stage gametocytes (IV–V); assay: Late stage P. falciparum; assay type: cell-based; details: Plasmodium falciparum, NF54, HN12, 72 h, read-out: Pf LSG IC50
[4] = system: human HDAC5; details: cited from earlier work
[5] = system: human HDAC4; details: cited from earlier work
[6] = system: P. falciparum histone H3; assay: Histone hyperacetylation assay; assay type: cell-based, Plasmodium falciparum; details: 500 nM, 3 h, trophozoite-stage 3D7, Western blot anti-acetyl H3
[7] = system: P. berghei exo-erythrocytic forms (EEF); assay: Pb liver stage assay; assay type: cell-based; details: Plasmodium berghei, 48 h, read-out: Pb EEF IC50, P. berghei exo-erythrocytic forms in HepG2-A16-CD81EGFP cells, 48 h
[8] = system: P. falciparum; details: read-out: P. falciparum IC50; cited from earlier work
[9] = system: P. falciparum 3D7; details: read-out: Pf 3D7 IC50, asexual blood stages; cited from earlier work
[10] = system: P. falciparum histone H4; assay: Histone hyperacetylation assay; assay type: cell-based, Plasmodium falciparum; details: 500 nM, 3 h, trophozoite-stage 3D7, Western blot anti-acetyl H4

For `O=C1C(O)=C([C@H]2CC[C@H](c3ccc(Cl)cc3)CC2)C(=O)c2ccccc21` [Atovaquone], the IC50 [1] was > 10000 nM.

With `CCN(CC)CCCC(C)Nc1ccnc2cc(Cl)ccc12` (stereo not drawn) [Chloroquine] the IC50 [2] was 10 nM and the IC50 [3] was > 120000 nM.

For `Cc1cc(C)cc(C(=O)NOCCCCCC(=O)NO)c1` [Compound 1a], the “human HDAC5 IC50” value [4] is given as “low nanomolar” and the “human HDAC4 IC50” value [5] is given as “low nanomolar”.

For `Cc1ccc(C(=O)NOCCCCCC(=O)NO)cc1C` [Compound 1b], the “hyperacetylation of P. falciparum histone H3” value [6] was “to a lesser extent”.

With `CCCOc1ccc(C(=O)NOCCCCCC(=O)NO)cc1` [Compound 1m, N-((6-(Hydroxyamino)-6-oxohexyl)oxy)-4-propoxybenzamide] the IC50 [7] was > 5000 nM.

For `CCCCCOc1ccc(C(=O)NOCCCCCC(=O)NO)cc1` [Compound 1n, N-((6-(Hydroxyamino)-6-oxohexyl)oxy)-4-(pentyloxy)benzamide], the IC50 [7] was > 5000 nM.

In the case of `CCCCCCOc1ccc(C(=O)NOCCCCCC(=O)NO)cc1` [Compound 1s, 4-(Hexyloxy)-N-((6-(hydroxyamino)-6-oxohexyl)oxy)benzamide], the IC50 [7] is reported as > 5000 nM.

For `O=C(/C=C/c1ccccc1)N[C@@H](CCCCCC(=O)NO)C(=O)Nc1cccc2cccnc12` [Compound 2-ASA-9], the IC50 [8] is listed as 15 to 39 nM.

In the case of `O=C(CCCCCCC(=O)Nc1ccccc1)NO` [SAHA, suberoylanilide hydroxamic acid], the IC50 [9] is listed as 130 nM.

For `CCCCc1nc2cc(/C=C/C(=O)NO)ccc2n1CCN(CC)CC` [SB939], the IC50 [8] is given as 80 to 150 nM.

In the case of `CC(/C=C/C(=O)NO)=C\[C@@H](C)C(=O)c1ccc(N(C)C)cc1` [TSA, Trichostatin A], the “hyperacetylation of P. falciparum histone H4” value [10] is given as “caused hyperacetylation” and the IC50 [8] is given as 8 to 11 nM.

In the case of `Nc1cccc(-c2csc(NC(=O)CCCCCCC(=O)NO)n2)c1` [WR301801 (YC-II-88)], the IC50 [8] is given as 0.6 to 1.8 nM.

Reference: article PMC4679366 (European journal of medicinal chemistry, 2014)
